Assay [1] concerns the target T1, Recombinant ROCK2 (amino acids 5-554) (Homo sapiens, UniProt O75116).
T1 construct: ROCK2 (amino acids 5-554)
The assay can be described thus: ROCK inhibition assay, LANCE Ultra TR-FRET kinase assay. The class given is biochemical. The settings on record: at Km of ATP (table title); method: 1 mM ATP, 50 nM ULight-CREBtide substrate, 1 hour, room temperature. On the procedure: (§1) Kinase IC50 was determined through an in vitro assay based on LANCE Ultra TR-FRET (Time-Resolved Fluorescence Resonance Energy Transfer) homogeneous technologies method (Perkin Elmer). Recombinant ROCK1 (amino acids 1-477) and ROCK2 (amino acids 5-554) proteins were purchased from Carna Biosciences and SignalChem. Compound activities were measured by Envision and IC50s were calculated. The assays were performed in white LUMITRAC™ 200 96 well half-area microplates from Greiner Bio-One. The kinase reaction buffer consisted of 50 mM HEPES pH 7.5, 1 mM EGTA, 10 mM MgCl2, 2 mM DTT and 0.01% Tween-20. Kinases were incubated with 50 nM (ULight-CREBtide) substrate in the presence of 1 mM (ROCK1) or 1 mM (ROCK2) of ATP. The kinase reaction was carried out for 1 hour before addition of a stopping buffer to a final of 10 mM EDTA and 0.6 nM of LANCE Ultra Europium anti-phospho-CREB (Ser133) antibody (PerkinElmer TRF0200) in LANCE detection buffer. All assay incubations were performed at room temperature, and the microplates were sealed with polyester film during that time. The reaction was incubated for 1 hour, and the signal was read in Envision in TR-FRET mode (excitation at 320 nm and emission at 615/665 nm).
(§2) As used herein, a way to describe potency of inhibitory activity (nM) is a value of inhibitory activity at 50% (IC50).
For orientation: TR-FRET usually uses a lanthanide donor and a delayed reading to cut background.

Assay [2] has as its target T2, Recombinant ROCK1 (amino acids 1-477) (Homo sapiens, UniProt Q13464).
T2 construct: Recombinant ROCK1 (amino acids 1-477)
The assay is described as above. The assay is classed as biochemical. The settings on record: at Km of ATP (table title); method: 1 mM ATP, 50 nM ULight-CREBtide substrate, 1 hour, room temperature. On the procedure: as §1, §2

T2 sequence (Q13464 1-477): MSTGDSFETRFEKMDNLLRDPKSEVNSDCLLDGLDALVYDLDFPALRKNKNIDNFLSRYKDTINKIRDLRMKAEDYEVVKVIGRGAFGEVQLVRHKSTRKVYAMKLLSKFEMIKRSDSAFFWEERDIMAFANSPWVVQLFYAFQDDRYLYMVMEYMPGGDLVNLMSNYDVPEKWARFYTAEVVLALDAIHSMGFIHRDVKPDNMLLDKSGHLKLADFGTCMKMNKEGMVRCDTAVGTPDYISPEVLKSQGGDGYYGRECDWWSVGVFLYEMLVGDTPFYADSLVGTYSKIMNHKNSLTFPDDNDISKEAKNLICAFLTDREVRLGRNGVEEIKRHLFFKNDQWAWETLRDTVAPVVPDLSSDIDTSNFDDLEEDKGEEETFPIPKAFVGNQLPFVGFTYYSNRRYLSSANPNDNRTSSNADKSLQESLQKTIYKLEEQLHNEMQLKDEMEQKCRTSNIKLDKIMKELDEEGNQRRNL
T1 sequence (O75116 5-554): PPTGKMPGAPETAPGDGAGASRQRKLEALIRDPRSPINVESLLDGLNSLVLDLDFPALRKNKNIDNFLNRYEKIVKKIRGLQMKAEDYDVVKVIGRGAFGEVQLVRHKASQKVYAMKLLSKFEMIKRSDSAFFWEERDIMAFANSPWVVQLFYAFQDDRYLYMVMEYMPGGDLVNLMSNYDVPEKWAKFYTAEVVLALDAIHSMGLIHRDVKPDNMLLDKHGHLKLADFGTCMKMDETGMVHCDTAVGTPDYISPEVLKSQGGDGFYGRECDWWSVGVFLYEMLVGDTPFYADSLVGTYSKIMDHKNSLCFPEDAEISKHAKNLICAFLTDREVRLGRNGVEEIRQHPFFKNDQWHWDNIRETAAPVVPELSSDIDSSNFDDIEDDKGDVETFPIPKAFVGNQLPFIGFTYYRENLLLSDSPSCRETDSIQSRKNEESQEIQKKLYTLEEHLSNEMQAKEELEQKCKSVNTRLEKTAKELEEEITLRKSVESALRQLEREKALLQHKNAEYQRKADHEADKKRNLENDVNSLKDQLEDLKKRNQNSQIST

One may read the IC50 as the concentration that inhibits the measured activity by half. Take `COCCn1nc(C(=O)C2COc3ccccc3C2)c2ccc(-c3cn[nH]c3)cc21` (centres unmarked) [Compound 2-24, Chroman-3-yl-[1-(2-methoxyethyl)-6-(1H-pyrazol-4-yl)indazol-3-yl]methanone]: the half-inhibitory concentration (IC50) was less than 10 nM in assay [1] and 11 to 50 nM in assay [2].
With `COCCn1nc(C(=O)[C@@H]2COc3ccccc3O2)c2ccc(-c3cn[nH]c3)cc21` [Compound 2-25], the IC50 in assay [1] and in assay [2] was 11 to 50 nM each time.
With `O=C(c1nn(CCO)c2cc(-c3c[nH]nc3C(F)(F)F)ccc12)C1COc2ccc(F)cc2C1` (centres unmarked) [Compound 2-26], the half-inhibitory concentration (IC50) in assay [1] and in assay [2] was 51 to 500 nM throughout.
Take `COc1n[nH]cc1-c1ccc2c(C(=O)C3COc4ccc(F)cc4C3)nn(CCO)c2c1` (centres unmarked) [Compound 2-27]: the IC50 in assay [1] is less than 10 nM; in assay [2], 11 to 50 nM.
In the case of `CC(C)c1n[nH]cc1-c1ccc2c(C(=O)C3COc4ccc(F)cc4C3)nn(CCO)c2c1` (centres unmarked) [Compound 2-28], the IC50 in assay [1] and in assay [2] was more than 501 nM in each case.
With `COc1n[nH]cc1-c1ccc2c(C(=O)C3COc4ccc(Cl)cc4C3)nn(CC#N)c2c1` (centres unmarked) [Compound 2-29], the IC50 in assay [1] is 51 to 500 nM; in assay [2], more than 501 nM.
Consider `COc1n[nH]cc1-c1ccc2c(C(=O)C3Cc4ccccc4O3)nn(CCO)c2c1` (centres unmarked) [Compound 2-30], for which the IC50 in assay [1] and in assay [2] was 51 to 500 nM each time.
Take `COc1n[nH]cc1-c1ccc2c(C(=O)C3(C)COc4ccccc4O3)nn(CCO)c2c1` (centres unmarked) [Compound 2-31]: the IC50 in assay [1] and in assay [2] was 51 to 500 nM in each case.
Consider `COc1n[nH]cc1-c1ccc2c(C(=O)c3coc4ccccc34)nn(CCO)c2c1` [Compound 2-32], for which the half-inhibitory concentration (IC50) in assay [1] was 51 to 500 nM; in assay [2] it was more than 501 nM.
Consider `COc1n[nH]cc1-c1ccc2c(C(=O)C3COc4ccc(Cl)cc4C3)nn(CC(C)O)c2c1` (centres unmarked) [Compound 2-33], for which the IC50 in assay [1] was in the range of 11 to 50 nM; in assay [2], 51 to 500 nM.
Take `COc1n[nH]cc1-c1ccc2c(C(=O)C3COc4ccc(Cl)cc4C3)nn(C[C@@H](C)O)c2c1` (some centres unmarked) [Compound 2-34]: the concentration for half-maximal inhibition (IC50) lay within 11 to 50 nM in assay [1] and 51 to 500 nM in assay [2].
On to `COc1n[nH]cc1-c1ccc2c(C(=O)C3COc4ccc(Cl)cc4C3)nn(C[C@H](C)O)c2c1` (some centres unmarked) [Compound 2-35], for which the IC50 in assay [1] is 11 to 50 nM; in assay [2] it was 51 to 500 nM.
On to `O=C(c1nn(CCO)c2cc(-c3cn[nH]c3)ccc12)C1COc2ccc(F)cc2C1` (centres unmarked) [Compound 3-1, (6-fluorochroman-3-yl)(1-(2-hydroxyethyl)-6-(1H-pyrazol-4-yl)-1H-indazol-3-yl)methanone], for which the IC50 in assay [1] is less than 10 nM; in assay [2] it was 11 to 50 nM.
As for `O=C(c1nn(CCO)c2cc(-c3cn[nH]c3)ccc12)C1COc2ccccc2C1` (centres unmarked) [Compound 3-2], the IC50 was less than 10 nM in assay [1] and 11 to 50 nM in assay [2].
As for `O=C(c1nn(CCO)c2cc(-c3cn[nH]c3)ccc12)C1COc2ccc(F)cc2O1` (centres unmarked) [Compound 3-3], the 50% inhibitory concentration (IC50) is less than 10 nM in assay [1] and 11 to 50 nM in assay [2].
Take `O=C(c1nn(CCO)c2cc(-c3cn[nH]c3)ccc12)C1COc2ccc(Cl)cc2O1` (centres unmarked) [Compound 3-4]: the IC50 is less than 10 nM in assay [1] and 51 to 500 nM in assay [2].

The record behind these values is US20240368154A1 (GENOSCO Inc., priority 2023, published 2024).
